This passage reports EC50 results from US8916702B2 (priority 2012, dated 2014).

Each structure is given as a SMILES string. Read-outs that look alike come from different tables or passages of the source.

The assay has as its system HCV pseudoparticles (genotype 1a HCV E1 and E2 envelope, H77C isolate). The assay is described as follows: microbe, parasite or virus in culture. As to conditions: Hepatitis C virus. The class given is cell-based.
Where [1] appears, read: Huh-7, 48 h, read-out: Activity (EC50 class), HCV pseudoparticle infection of Huh7 cells, luciferase 2 days after infection, EC50 expressed as class A/B.
The mark [2] stands for this setting: Huh-7, read-out: Activity (EC50 class), HCV pseudoparticles (genotype 1a, H77C) in Huh7 cells, EC50 expressed as class A/B.
Setting [3] is: Huh-7, 48 h, HCV pseudoparticle infection of Huh7 cells, luciferase 2 days after infection, average of duplicates.
Where [4] appears, read: Huh-7, 48 h, read-out: Activity (EC50 class), HCV pseudoparticles, Huh7 cells, luciferase 2 days after infection, average of duplicates.

With `O=C(NCC[C@@H](NC(=O)c1ccc(Nc2nc(NC3(c4ccc(Cl)cc4)CC3)nc(OCC(F)(F)F)n2)cc1)C(=O)O)C(=O)Nc1ccc(Cl)cc1` [Compound 1555], the EC50 under setting [1] fell in the range of 0.01 to 10 nM.

Take `COC(=O)[C@H](CCNC(=O)C(=O)NCC(C)(C)C)NC(=O)c1ccc(Nc2nc(NC3(c4ccc(Cl)cc4)CC3)nc(OCC(F)(F)F)n2)cc1` [Compound 1195]: under setting [1], the EC50 was 0.01 to 10 nM.

With `COC(=O)[C@H](CNC(=O)C(=O)Nc1ccc(C(C)(C)C)cc1)NC(=O)c1ccc(Nc2nc(NC3(c4ccc(Cl)cc4)CC3)nc(OCC(F)(F)F)n2)cc1` [Compound 3211], the EC50 under setting [2] fell in the range of 0.01 to 10 nM.

For the molecule `Cc1cc(NC(=O)C(=O)N(C)CCCN(C)C(=O)c2ccc(Nc3nc(NC4(c5ccc(Cl)cc5)CC4)nc(OCC(F)(F)F)n3)cc2)no1` [Compound 3423], the EC50 under setting [2] lay within 0.01 to 10 nM.

In the case of `Cn1cncc1NC(=O)C(=O)NCC[C@H](NC(=O)c1ccc(Nc2nc(NC3(c4ccc(Cl)cc4)CC3)nc(OCC(F)(F)F)n2)cc1)C(=O)O` [Compound 1267], the concentration for a half-maximal effect (EC50) runs as follows: under setting [3], 5.26 nM; under setting [1], 0.01 to 10 nM.

In the case of `O=C(NCC(O)CNC(=O)c1ccc(Nc2nc(NC3(c4ccc(Cl)cc4)CC3)nc(OCC(F)(F)F)n2)cc1)C(=O)NC1CCCCC1` (centres unmarked) [Compound 3463], under setting [2], the EC50 lay in the range of 0.01 to 10 nM.

`CC1CCCCC1NC(=O)C(=O)NCC[C@H](NC(=O)c1ccc(Nc2nc(NC3(c4ccc(Cl)cc4)CC3)nc(OCC(F)(F)F)n2)cc1)C(=O)O` (some centres unmarked) [Compound 1124]: the EC50 under setting [1] lay in the range of 0.01 to 10 nM.

Consider `COC(=O)[C@H](CCNC(=O)C(=O)NC(c1ccc(OC)cc1)C1CC1)NC(=O)c1ccc(Nc2nc(NC3(c4ccc(Cl)cc4)CC3)nc(OCC(F)(F)F)n2)cc1` (some centres unmarked) [Compound 1418], for which the EC50 under setting [3] came out at 0.28 nM and the EC50 under setting [1] was 0.01 to 10 nM.

As for `COC(=O)[C@H](CNC(=O)C(=O)Nc1cccc(C(=O)Nc2ccccc2)c1)NC(=O)c1ccc(Nc2nc(NC3(c4ccc(Cl)cc4)CC3)nc(OCC(F)(F)F)n2)cc1` [Compound 3691], under setting [4], the EC50 lay in the range of 0.01 to 10 nM.

`COC(=O)[C@H](CNC(=O)C(=O)Nc1cccc(OC)c1)NC(=O)c1ccc(Nc2nc(NC3(c4ccc(Cl)cc4)CC3)nc(OCC(F)(F)F)n2)cc1` [Compound 1250]: the 50% effective concentration (EC50) under setting [1] is 0.01 to 10 nM.

Turning to `COC(=O)[C@H](CNC(=O)C(=O)NCCc1ccc(OC)cc1)NC(=O)c1ccc(Nc2nc(NC3(c4ccc(Cl)cc4)CC3)nc(OCC(F)(F)F)n2)cc1` [Compound 1287], the EC50 under setting [1] is 0.01 to 10 nM.

Consider `CCOC(=O)[C@H](CCNC(=O)C(=O)NC)NC(=O)c1ccc(Nc2nc(NC3(c4ccc(Cl)cc4)CC3)nc(OCC(F)(F)F)n2)cc1` [Compound 1027, (S)-ethyl 2-(4-(4-(1-(4-chlorophenyl)cyclopropylamino)-6-(2,2,2-trifluoroethoxy)-1,3,5-triazin-2-ylamino)benzamido)-4-(2-(methylamino)-2-oxoacetamido)butanoate], for which the EC50 under setting [1] was in the range of 0.01 to 10 nM.

For the molecule `COC(=O)C(NC(=O)c1ccc(Nc2nc(NC3(c4ccc(Cl)cc4)CC3)nc(OCC(F)(F)F)n2)cc1)C1CCCN(C(=O)C(N)=O)C1` (centres unmarked) [Compound 1017, methyl 2-(1-(2-amino-2-oxoacetyl)piperidin-3-yl)-2-(4-(4-(1-(4-chlorophenyl)cyclopropylamino)-6-(2,2,2-trifluoroethoxy)-1,3,5-triazin-2-ylamino)benzamido)acetate], under setting [1], the EC50 was 0.01 to 10 nM.

As for `CC(C)(CNC(=O)C(=O)NCc1ccccc1-c1ccccc1)CNC(=O)c1ccc(Nc2nc(NC3(c4ccc(Cl)cc4)CC3)nc(OCC(F)(F)F)n2)cc1` [Compound 3035], the EC50 under setting [2] lay within 0.01 to 10 nM.

For the molecule `O=C(NC1CCCCC1)C(=O)N1CCCC(CNC(=O)c2ccc(Nc3nc(NC4(c5ccc(Cl)cc5)CC4)nc(OCC(F)(F)F)n3)cc2)C1` (centres unmarked) [Compound 3489], the EC50 under setting [2] lay in the range of 0.01 to 10 nM.

Regarding `COC(=O)[C@H](CNC(=O)C(=O)Nc1ccc(N2CCCC2=O)cc1)NC(=O)c1ccc(Nc2nc(NC3(c4ccc(Cl)cc4)CC3)nc(OCC(F)(F)F)n2)cc1` [Compound 3097], the EC50 under setting [2] fell in the range of 0.01 to 10 nM.

In the case of `COc1cccc(-c2ccccc2NC(=O)C(=O)NCC(C)(C)CNC(=O)c2ccc(Nc3nc(NC4(c5ccc(Cl)cc5)CC4)nc(OCC(F)(F)F)n3)cc2)c1` [Compound 3049], the EC50 under setting [2] is 0.01 to 10 nM.

`COc1ccc2sc(NC(=O)C(=O)NCC(C)(C)CNC(=O)c3ccc(Nc4nc(NC5(c6ccc(Cl)cc6)CC5)nc(OCC(F)(F)F)n4)cc3)nc2c1` [Compound 3806]: the EC50 under setting [4] lay within 0.01 to 10 nM.

Take `O=C(NCC[C@H](NC(=O)c1ccc(Nc2nc(NC3(c4ccc(Cl)cc4)CC3)nc(OCC(F)(F)F)n2)cc1)C(=O)O)C(=O)Nc1ccc(Cl)nc1` [Compound 3611]: under setting [4], the EC50 was in the range of 0.01 to 10 nM.

In the case of `O=C(NCc1ccc(F)cc1)C(=O)NCC(O)CNC(=O)c1ccc(Nc2nc(NC3(c4ccc(Cl)cc4)CC3)nc(OCC(F)(F)F)n2)cc1` (centres unmarked) [Compound 3368], the EC50 under setting [2] fell in the range of 0.01 to 10 nM.

Consider `CCc1cccc(NC(=O)C(=O)NC[C@H](NC(=O)c2ccc(Nc3nc(NC4(c5ccc(Cl)cc5)CC4)nc(OCC(F)(F)F)n3)cc2)C(=O)OC)c1` [Compound 3688], for which the EC50 reads like this: (Huh-7, 48 h, HCV pseudoparticles, Huh7 cells, luciferase 2 days after infection, average of duplicates) 0.97 nM; under setting [4], 0.01 to 10 nM.

`COC(=O)[C@H](CCNC(=O)C(=O)Nc1ccc(-c2ccccc2C)cc1)NC(=O)c1ccc(Nc2nc(NC3(c4ccc(Cl)cc4)CC3)nc(OCC(F)(F)F)n2)cc1` [Compound 3304]: the concentration giving a half-maximal response (EC50) under setting [2] lay in the range of 0.01 to 10 nM.

As for `COc1ccc(NC(=O)C(=O)NCC(C)(C)CNC(=O)c2ccc(Nc3nc(NC4(c5ccc(Cl)cc5)CC4)nc(OCC(F)(F)F)n3)cc2F)c(OC)c1` [Compound 3560], the EC50 under setting [2] lay within 0.01 to 10 nM.

As for `O=C(NCC[C@H](NC(=O)c1ccc(Nc2nc(NC3(c4ccc(Cl)cc4)CC3)nc(OCC(F)(F)F)n2)cc1)C(=O)O)C(=O)Nc1cccc(CCc2ccccn2)c1` [Compound 3638], the concentration giving a half-maximal response (EC50) under setting [4] was in the range of 0.01 to 10 nM.

With `O=C(NCc1ccc(F)cc1)C(=O)N1CCCC(CNC(=O)c2ccc(Nc3nc(NC4(c5ccc(Cl)cc5)CC4)nc(OCC(F)(F)F)n3)cc2)C1` (centres unmarked) [Compound 3483], under setting [2], the EC50 fell in the range of 0.01 to 10 nM.

Take `O=C(NC/C(=N/C(=O)c1ccc(Nc2nc(NC3(c4ccc(Cl)cc4)CC3)nc(OCC(F)(F)F)n2)cc1)C(=O)O)C(=O)Nc1ccc(Cl)cc1` [Compound 3149]: the EC50 under setting [2] was in the range of 0.01 to 10 nM.

In the case of `COC(=O)[C@H](CCNC(=O)C(=O)NC1CCCCC1C)NC(=O)c1ccc(Nc2nc(NC3(c4ccc(Cl)cc4)CC3)nc(OCC(F)(F)F)n2)cc1` (some centres unmarked) [Compound 1075], the EC50 under setting [1] was 0.01 to 10 nM.

With `COc1ccc(C2(Nc3nc(Nc4ccc(C(=O)NCC(C)(C)CNC(=O)C(N)=O)cc4)nc(OCC(F)(F)F)n3)CC2)cc1C(F)(F)F` [Compound 3351], the EC50 under setting [2] was in the range of 0.01 to 10 nM.

As to `Cc1nc(-c2cccc(NC(=O)C(=O)NC[C@H](NC(=O)c3ccc(Nc4nc(NC5(c6ccc(Cl)cc6)CC5)nc(OCC(F)(F)F)n4)cc3)C(=O)Cl)c2)no1` [Compound 3785], the EC50 under setting [4] fell in the range of 0.01 to 10 nM.

For the molecule `COC(=O)[C@H](CNC(=O)C(=O)Nc1ccc(OCCc2ccccn2)cc1)NC(=O)c1ccc(Nc2nc(NC3(c4ccc(Cl)cc4)CC3)nc(OCC(F)(F)F)n2)cc1` [Compound 3198], the EC50 is 1.02 nM (Huh-7, 48 h, HCV pseudoparticles (genotype 1a, H77C) in Huh7 cells, average of duplicate, luciferase 2 days after infection) and 0.01 to 10 nM under setting [2].

As for `O=C(NC[C@H](NC(=O)c1ccc(Nc2nc(NC3(c4ccc(Cl)cc4)CC3)nc(OCC(F)(F)F)n2)cc1)C(=O)O)C(=O)Nc1cccc(OC(F)F)c1` [Compound 3764], the EC50 under setting [4] lay in the range of 0.01 to 10 nM.

For the molecule `COC(=O)[C@H](CNC(=O)C(=O)Nc1ccc(OC)nc1)NC(=O)c1ccc(Nc2nc(NC3(c4ccc(Cl)cc4)CC3)nc(OCC(F)(F)F)n2)cc1` [Compound 1242], the EC50 is 0.32 nM under setting [3] and 0.01 to 10 nM under setting [1].

Consider `COC(=O)[C@H](CNC(=O)C(=O)Nc1cccc(-c2ccnc(C)n2)c1)NC(=O)c1ccc(Nc2nc(NC3(c4ccc(Cl)cc4)CC3)nc(OCC(F)(F)F)n2)cc1` [Compound 3700], for which, under setting [4], the EC50 is 0.01 to 10 nM.

On to `COC(=O)[C@H](CCNC(=O)C(=O)Nn1cnnc1)NC(=O)c1ccc(Nc2nc(NC3(c4ccc(Cl)cc4)CC3)nc(OCC(F)(F)F)n2)cc1` [Compound 1219], for which, under setting [1], the EC50 was in the range of 10 to 1000 nM.

With `Cn1ccc(NC(=O)C(=O)NCC(C)(C)CNC(=O)c2ccc(Nc3nc(NC4(c5ccc(Cl)cc5)CC4)nc(OCC(F)(F)F)n3)cc2)n1` [Compound 3023], under setting [2], the EC50 is 0.01 to 10 nM.

For `Cc1nccc(-c2cccc(NC(=O)C(=O)NC[C@H](NC(=O)c3ccc(Nc4nc(NC5(c6ccc(Cl)cc6)CC5)nc(OCC(F)(F)F)n4)cc3)C(=O)O)c2)n1` [Compound 3756], the EC50 under setting [4] lay within 0.01 to 10 nM.

In the case of `Cc1ccc(NC(=O)C(=O)NCC(C)(C)CNC(=O)c2ccc(Nc3nc(NC4(c5ccc(Cl)cc5)CC4)nc(OCc4ccc(C(C)C)cc4)n3)cc2F)cc1` [Compound 3827, N^1-(3-(4-((4-((1-(4-chlorophenyl)cyclopropyl)amino)-6-((4-isopropylbenzyl)oxy)-1,3,5-triazin-2-yl)amino)-2-fluorobenzamido)-2,2-dimethylpropyl)-N^2-(p-tolyl)oxalamide], the EC50 under setting [4] fell in the range of 0.01 to 10 nM.

On to `O=C(NCC[C@H](NC(=O)c1ccc(Nc2nc(NC3(c4ccc(Cl)cc4)CC3)nc(OCC(F)(F)F)n2)cc1)C(=O)O)C(=O)NC1CCCC(O)C1` (some centres unmarked) [Compound 1112], for which the EC50 runs as follows: under setting [3], 1.23 nM; under setting [1], 0.01 to 10 nM.

As to `COC(=O)[C@H](CNC(=O)C(=O)Nc1cccc(C)c1)NC(=O)c1ccc(Nc2nc(NC3(c4ccc(Cl)cc4)CC3)nc(OCC(F)(F)F)n2)cc1` [Compound 3687], the EC50 under setting [4] lay within 0.01 to 10 nM.

Consider `COc1cc(NC(=O)C(=O)NCC[C@H](NC(=O)c2ccc(Nc3nc(NC4(c5ccc(Cl)cc5)CC4)nc(OCC(F)(F)F)n3)cc2)C(=O)O)ccc1-c1ccccc1` [Compound 1519], for which, under setting [1], the EC50 is 0.01 to 10 nM.

As for `COC(=O)[C@H](CNC(=O)C(=O)NCc1ccccc1OC)NC(=O)c1ccc(Nc2nc(NC3(c4ccc(Cl)cc4)CC3)nc(OCC(F)(F)F)n2)cc1` [Compound 1150], the EC50 under setting [1] fell in the range of 0.01 to 10 nM.
